Measurements as given in PMC8878452, “A Tale of Toxin Promiscuity: The Versatile Pharmacological Effects of Hcr 1b-2 Sea Anemone Peptide on Voltage-Gated Ion Channels” (Marine Drugs, 2022).
Entries after “also recorded” stand apart in the source; their conditions may differ. Bridges are numbered along the chain shown (N, C = ends). Where no end group is shown, it is not given here.

Assays:
hCav3.2 = assay: TEVC, Cav3.2 in Xenopus oocytes; assay type: cell-based, human
Source text: (§1) For the expression of Kv channels (rKv1.1, rKv1.2, rKv1.3, rKv1.4, rK1.5, rKv1.6, hKv2.1, hKv3.1, rKv4.2, hKv7.1, hKv7.2/7.3, hKv7.4, KQT1 (from the roundworm Caenorhabditis elegans), hKv10.1 (hEAG1), hKv11.1 (hERG1), and Shaker, from Drosophila melanogaster), Nav channels (rNav1.1, rNav1.2, rNav1.3, rNav1.4, hNav1.5, mNav1.6, hNav1.7, hNav1.8, and BgNav (from the cockroach Blattella germanica), as well as the hβ1 and rβ1 subunits, and Cav channels (rCav3.1, hCav3.2, and rCav3.3) in Xenopus oocytes, the linearized plasmids were transcribed using the T7 or SP6 mMESSAGEmMACHINE transcription kit (Ambion, Austin, TX, USA). Mature female animals were purchased from Nasco (Fort Atkinson, WI, USA) and were housed in the Aquatic Facility (KU Leuven) in compliance with the regulations of the European Union (EU) concerning the welfare of laboratory animals as declared in Directive 2010/63/EU. The use of X. laevis oocytes was approved by the Animal Ethics Committee of the KU Leuven, with the license number P186/2019.
(§2) Stage V–VI oocytes were collected from anesthetized female X. laevis frog as previously described, with the frogs anesthetized by placement in a 0.1% tricaine solution (amino benzoic acid ethyl ester; Merck, Kenilworth, NJ, USA). Oocyte microinjection was performed using a microinjector (Drummond Scientifc®, Broomall, PA, USA), with a programmed cRNA injection volume of 4–50 nL, depending on channel subtype. The oocytes were incubated in ND96 solution (96 mM NaCl; 2 mM KCl; 1.8 mM CaCl2; 2 mM MgCl2, and 5 mM HEPES, pH 7.4), supplemented with 50 mg/L of gentamicin sulfate.
(§3) Electrophysiological measurements were performed at room temperature (18–22 °C) using the two-electrode voltage-clamp (TEVC) technique. Data were obtained using a GeneClamp 500 amplifier (Axon Instruments®, Burlingame, CA, USA) and Clampex9 software (Axon Instruments®, USA) was responsible for data acquisition and storage. Glass micropipettes were produced using glass capillaries (borosilicate WPI 1B120-6) and drawn in a WPI (World Precision Instruments®, Sarasota, FL, USA) manual stretcher. The bath and perfusion solutions were either the previously described ND96 (Nav and Kv channels) or calcium-free ND96 supplemented with 10 mM BaCl2 (Cav channels).
(§4) Whole-cell currents of oocytes were recorded 1 to 3 days after RNA injection. The current and voltage electrodes were filled with 3 M KCl, and their resistance was adjusted from 1.0 to 2.5 MΩ. Currents were sampled at 20 kHz (Nav channels) and 10 kHz (Kv and Cav channels) and filtered using a four-pole Bessel low-pass Bessel filter at 1 kHz for sodium and […] for potassium and calcium, except for the hERG ion channel in which the currents were filtered at 1 kHz. Leak subtraction was performed using a P/4 protocol. Kv1.x currents were evoked by 500 ms depolarizations to 0 mV, followed by a 500 ms pulse to −50 mV from a holding potential of −90 mV. Kv2.1, Kv3.1, Kv4.2, Kv7.x, and KQT1 currents were elicited by 700 ms pulses to +20 mV from a holding potential of −90 mV. Current traces of the hERG1 channel were elicited by applying a +40 mV prepulse for 2 s, followed by a step of −120 mV for 2 s. […] The current–voltage relationships were determined by 50 ms step depolarizations between −90 and +65 mV using 5 or 10 mV increments. All electrophysiological data were analyzed following the procedures described by Peigneur et al., 2012 [20].
(§5) All values were expressed as means ± SEM. […]

rKv1.1 = assay: TEVC, Kv1.1 in Xenopus oocytes; assay type: cell-based, rat
Source text: as §1, §2, §3
(§6) Whole-cell currents of oocytes were recorded 1 to 3 days after RNA injection. The current and voltage electrodes were filled with 3 M KCl, and their resistance was adjusted from 1.0 to 2.5 MΩ. […] The current–voltage relationships were determined by 50 ms step depolarizations between −90 and +65 mV using 5 or 10 mV increments. All electrophysiological data were analyzed following the procedures described by Peigneur et al., 2012 [20].
as §5

hNav1.8 = assay: TEVC, Nav1.8 in Xenopus oocytes; assay type: cell-based, human
Source text: as §1, §2, §3
Whole-cell currents of oocytes were recorded 1 to 3 days after RNA injection. The current and voltage electrodes were filled with 3 M KCl, and their resistance was adjusted from 1.0 to 2.5 MΩ. Currents were sampled at 20 kHz (Nav channels) and 10 kHz (Kv and Cav channels) and filtered using a four-pole Bessel low-pass Bessel filter at 1 kHz for sodium and […] for potassium and calcium, except for the hERG ion channel in which the currents were filtered at 1 kHz. Leak subtraction was performed using a P/4 protocol. Kv1.x currents were evoked by 500 ms depolarizations to 0 mV, followed by a 500 ms pulse to −50 mV from a holding potential of −90 mV. Kv2.1, Kv3.1, Kv4.2, Kv7.x, and KQT1 currents were elicited by 700 ms pulses to +20 mV from a holding potential of −90 mV. Current traces of the hERG1 channel were elicited by applying a +40 mV prepulse for 2 s, followed by a step of −120 mV for 2 s. Current traces of hEAG1 were elicited by a 2 s depolarization to 0 mV from a holding potential of −90 mV. Sodium current traces were evoked by a 100 ms depolarization to 0 mV. For Cav channels, current traces were elicited by 700 ms depolarizations to −20 mV from a holding potential of −90 mV. The current–voltage relationships were determined by 50 ms step depolarizations between −90 and +65 mV using 5 or 10 mV increments. All electrophysiological data were analyzed following the procedures described by Peigneur et al., 2012 [20].
All values were expressed as means ± SEM. Differences in ionic currents between the control and toxin conditions were compared by a one-way ANOVA, followed by Dunnett’s multiple comparisons test. Differences were considered statistically significant when […].

rKv1.2 = assay: TEVC, Kv1.2 in Xenopus oocytes; assay type: cell-based, rat
Source text: as §1, §2, §3, §6, §5

[1] = system: voltage-gated potassium (KV), sodium (NaV), and calcium (CaV) channels; assay: TEVC screening panel of 28 voltage-gated ion channels; assay type: cell-based; conditions: 1 µM; 28 channels screened
Source text: as §1, with “P186/2019. […]” for “P186/2019.”
(§7) Whole-cell currents of oocytes were recorded 1 to 3 days after RNA injection. […] The current–voltage relationships were determined by 50 ms step depolarizations between −90 and +65 mV using 5 or 10 mV increments. All electrophysiological data were analyzed following the procedures described by Peigneur et al., 2012 [20].
as §5

hKv7.2/7.3 = assay: TEVC, Kv7.2/7.3 in Xenopus oocytes; assay type: cell-based, human
Source text: as §1, §2, §3, §6, §5

rKv1.6 = assay: TEVC, Kv1.6 in Xenopus oocytes; assay type: cell-based, rat; conditions: 1 µM, n ≥ 3
Source text: as §1, with “P186/2019. […]” for “P186/2019.”
as §7, §5

hKv2.1 = assay: TEVC, Kv2.1 in Xenopus oocytes; assay type: cell-based, human
Source text: as §1, §2, §3, §4, §5

rCav3.1 = assay: TEVC, Cav3.1 in Xenopus oocytes; assay type: cell-based, rat
Source text: as §1, §2, §3, §6, §5

tested animals = conditions: cited from earlier work
Experimental: Recently, the Hcr 1b-2 sequence was determined, together with two other peptides, named Hcr1b-3 and Hcr1b-4, which share 97.6% and 78.0% of sequence identity, respectively (Figure 1).

hKv11.1 (hERG1) = assay: TEVC, hERG in Xenopus oocytes; assay type: cell-based, human
Source text: as §1, §2, §3, §4, §5

[2] = 1 µM vs control (ND96 Ca2+ free)
[3] = 1 µM, TEVC, ND96 pH 7.4, 18–22 °C, n ≥ 3

With “GTPCKCHGYIGVYWFMLAGCPNGYGYNLSCPYFLGICCVKK (disulfide 4-37, 6-30, 20-38 (inferred)) [Hcr 1b-2]” the “Shift in Vhalf activation, Cav3.2” value (hCav3.2; [2]) was −0.4 mV, the “Shift in Vhalf inactivation, Cav3.2” value (hCav3.2; [2]) was 0.5 mV and the “inhibition, Cav3.2” value (hCav3.2; 1 µM, calcium-free ND96 + 10 mM BaCl2, 700 ms depolarization to −20 mV from −90 mV, mean ± SEM, n ≥ 3) was 35.1 ± 0.7%. For the same sequence, the “Vhalf activation, Cav3.2” value (hCav3.2; 1 µM, control (ND96 Ca2+ free) −31.9 ± 0.1, mean ± SEM, n ≥ 3) was −32.3 ± 0.2 mV, the “Vhalf inactivation, Cav3.2” value (hCav3.2; 1 µM, control (ND96 Ca2+ free) −46.6 ± 0.8, mean ± SEM, n ≥ 3) was −46.1 ± 0.6 mV and the “gating-modifier effect (voltage-current relationship), Kv1.1” value (rKv1.1; 1 µM) was “non-significant gating-modifier effect”. The “Shift in Vhalf activation, Kv1.1” value (rKv1.1; 1 µM vs control (ND96)) was −4.8 mV, the “effect on potassium current, Kv1.1” value (rKv1.1; [3]) was “activation” and the “Vhalf activation, Kv1.1” value (rKv1.1; 1 µM, control (ND96) −13.8 ± 0.3, mean ± SEM) was −18.6 ± 0.3 mV. For the same sequence, the “effect on activation or inactivation, Nav1.8” value (hNav1.8; 1 µM) was “no significant effect”, the “Shift in Vhalf activation, Nav1.8” value (hNav1.8; 1 µM vs control (ND96)) was −0.3 mV and the “Shift in Vhalf inactivation, Nav1.8” value (hNav1.8; 1 µM vs control (ND96)) was −1.3 mV. For the same sequence, the “reduction of peak amplitude (INa), Nav1.8” value (hNav1.8; 1 µM, 100 ms depolarization to 0 mV, mean ± SEM, n ≥ 3) was 18.5 ± 1.9%, the “Vhalf activation, Nav1.8” value (hNav1.8; 1 µM, control (ND96) −2.3 ± 0.1, mean ± SEM, n ≥ 3) was −2.6 ± 0.1 mV and the “Vhalf inactivation, Nav1.8” value (hNav1.8; 1 µM, control (ND96) −35.6 ± 0.4, mean ± SEM, n ≥ 3) was −36.9 ± 0.5 mV. The “gating-modifier effect (voltage-current relationship), Kv1.2” value (rKv1.2; 1 µM) was “non-significant gating-modifier effect”, the “Shift in Vhalf activation, Kv1.2” value (rKv1.2; 1 µM vs control (ND96)) was −4.9 mV and the “effect on potassium current, Kv1.2” value (rKv1.2; [3]) was “activation”. For the same sequence, the “Vhalf activation, Kv1.2” value (rKv1.2; 1 µM, control (ND96) −24.7 ± 0.7, mean ± SEM) was −29.6 ± 0.89 mV, the “number of targets acted on, of 28 screened ion channels” value [1] was 26 targets and the “gating-modifier effect (voltage-current relationship), Kv7.2/7.3” value (hKv7.2/7.3; 1 µM) was “non-significant gating-modifier effect”. For the same sequence, the “Shift in Vhalf activation, Kv7.2/7.3” value (hKv7.2/7.3; 1 µM vs control (ND96)) was 1.3 mV, the “effect on potassium current, Kv7.2/7.3” value (hKv7.2/7.3; [3]) was “inhibition; also recorded: inhibits” and the “Vhalf activation, Kv7.2/7.3” value (hKv7.2/7.3; 1 µM, control (ND96) 14.6 ± 0.5, mean ± SEM) was 15.9 ± 0.7 mV. For the same sequence, the “activity (inhibition of current), Kv1.6” value (rKv1.6; 500 ms depolarization to 0 mV from −90 mV, mean ± SEM) was 31.5 ± 6.7%, the “effect on potassium current, Kv1.6” value (rKv1.6; TEVC, ND96 pH 7.4, 18–22 °C) was “inhibition” and the “gating-modifier effect (voltage-current relationship), Kv2.1” value (hKv2.1; 1 µM) was “non-significant gating-modifier effect”. The “Shift in Vhalf activation, Kv2.1” value (hKv2.1; 1 µM vs control (ND96)) was 2.6 mV, the “activity (inhibition of current), Kv2.1” value (hKv2.1; 1 µM, 700 ms pulse to +20 mV from −90 mV, mean ± SEM, n ≥ 3) was 32.6 ± 3.4% and the “effect on potassium current, Kv2.1” value (hKv2.1; [3]) was “inhibition”. For the same sequence, the “Vhalf activation, Kv2.1” value (hKv2.1; 1 µM, control (ND96) 5.3 ± 0.3, mean ± SEM) was 8.0 ± 0.2 mV, the “Shift in Vhalf activation, Cav3.1” value (rCav3.1; [2]) was −0.2 mV and the “Shift in Vhalf inactivation, Cav3.1” value (rCav3.1; [2]) was −2.3 mV. The “Vhalf activation, Cav3.1” value (rCav3.1; 1 µM, control (ND96 Ca2+ free) −41.0 ± 0.1, mean ± SEM, n ≥ 3) was −41.2 ± 0.1 mV, the “Vhalf inactivation, Cav3.1” value (rCav3.1; 1 µM, control (ND96 Ca2+ free) −58.4 ± 0.2, mean ± SEM, n ≥ 3) was −60.7 ± 0.2 mV and the “signs of neurotoxicity or changes in behavior” value (tested animals) was “None of these three peptides showed signs of neurotoxicity or changes in the behavior”. The “gating-modifier effect (voltage-current relationship), hERG” value (hKv11.1 (hERG1); 1 µM) was “stronger shift; also recorded: strong shift towards more positive potentials; also recorded: significantly shift the current-voltage relationship of hERG”, the “effect on potassium current, hERG” value (hKv11.1 (hERG1); 1 µM, TEVC, ND96 pH 7.4, 18–22 °C, n = 3) was “inhibition; also recorded: strong hERG modulator” and the “Vhalf activation, hERG (peak)” value (hKv11.1 (hERG1); 1 µM, peak current, control (ND96) −13.7 ± 0.5, mean ± SEM, n = 3) was 12.6 ± 0.4 mV. The “Vhalf activation, hERG (tail)” value (hKv11.1 (hERG1); 1 µM, tail current, control (ND96) −22.9 ± 0.6, mean ± SEM, n = 3) was 0.6 ± 0.7 mV and the inhibition at 1 µM (hKv11.1 (hERG1); human, Xenopus laevis oocytes expressing hKv11.1 (hERG1), pH 7.4, +40 mV prepulse 2 s, then −120 mV 2 s, mean ± SEM, n = 3, read-out: activity (inhibition of current), hERG) was 51.7 ± 7.6%.
